According to article PMC5030359, “Cathelicidin Antimicrobial Peptides with Reduced Activation of Toll-Like Receptor Signaling Have Potent Bactericidal Activity against Colistin-Resistant Bacteria” (mBio, 2016):
In brackets after ≈: the same amount, converted by molar mass. Several values for one entry are separate records, joined by “and”; a condition that tells them apart may be missing. Equal values may be shown once. Read-outs that look alike come from different tables or passages of the source. Bridge positions count the residues as written; N and C are the ends. Square brackets hold non-standard residues; d marks the D form. Peptide text beside a SMILES is read from it. * marks the point of attachment. X1 = CC[C@H](C)CCCCC(=O)*; Dab = NCC[C@H](N)C(=O)O

Experiments:
K. pneumoniae = assay: Bacterial killing, colony formation (CFU); format: cell-based, Klebsiella pneumoniae; conditions: 2 µM; Fig. 5C (K. pneumoniae 59) and data not shown
Klebsiella pneumoniae = conditions: for # strains inhibited at 16 µg/ml peptide K. p.: strains with MIC of 16 µg/ml or less / strains tested
Experimental: (§1) The bacterial species tested are Klebsiella pneumoniae (K. p.), Serratia marcescens (S. m.), Enterobacter cloacae (E. cl.), Escherichia coli (E. c.), and Pseudomonas aeruginosa (P. a.). MICs were determined by the microdilution assay. […] The results are the median values of at least three independent assays.
(§2) Antimicrobial activity was determined using the broth microdilution method based on the guidelines of the Clinical and Laboratory Standards Institute (CLSI) ([39]), using cation-adjusted Mueller-Hinton broth (CAMHB) as the testing medium. Reference Gram-positive and Gram-negative bacteria were tested, including both enteric and Pseudomonas aeruginosa strains. Each MIC was determined in at least three independent assays.

Enterobacter cloacae = conditions: strains with MIC of 16 µg/ml or less / strains tested
Experimental: as §1, §2

Serratia marcescens = conditions: for # strains inhibited at 16 µg/ml peptide S. m.: strains with MIC of 16 µg/ml or less / strains tested
Experimental: as §1, §2

E. cloacae 4080 = assay: Bacterial killing, colony formation (CFU); format: cell-based, Enterobacter cloacae; conditions: 25 µg/ml kanamycin sulfate, E. cloacae 4080
Experimental: The number of CFU of E. cloacae 4080 were quantified as a function of time of incubation with a 2 µM concentration of the individual peptides. In the reactions with kanamycin (Kan), 25 µg/ml of kanamycin sulfate was used. […] The initial inoculum was 10^6 CFU in LB.

Experimental for 19 Gram-negative strains: (A) Sequences of the cathelicidins, the numbers of bacterial strains killed, and hRBC lysis by the cathelicidins. […] The bacterial species tested are Klebsiella pneumoniae (K. p.), Serratia marcescens (S. m.), Enterobacter cloacae (E. cl.), Escherichia coli (E. c.), and Pseudomonas aeruginosa (P. a.). MICs were determined by the microdilution assay. […] The results are the median values of at least three independent assays.
We tested a panel of cathelicidins for inhibiting growth of 19 Gram-negative strains from the family Enterobacteriaceae and the nonfermentative bacteria. The species tested were Enterobacter cloacae ([2]), Escherichia coli ([5]), Klebsiella pneumoniae ([4]), Pseudomonas aeruginosa ([4]), and Serratia marcescens ([4]). All of the strains selected have been characterized for their antibiotic resistance profiles.
as §2
Experimental for E. faecalis: as §2
Experimental for Escherichia coli: as §1, §2
Experimental for Pseudomonas aeruginosa: as §1, §2
Experimental for S. aureus: as §2

| SMILES | fold reduction in CFU, colistin-resistant K. pneumoniae (K. pneumoniae) [fold] | MIC K. pneumoniae 59 (Klebsiella pneumoniae; carbapenem-resistant, colistin-resistant clinical isolate (ST258)) [µM] | MIC (µM) K. pneumoniae 88 (Klebsiella pneumoniae; carbapenem-resistant, colistin-resistant clinical isolate (ST674), microbroth MIC (SD)) [µM] | # strains inhibited at 16 µg/ml peptide E. cl. (Enterobacter cloacae) | # strains inhibited at 16 µg/ml peptide E. c. (Escherichia coli) | # strains inhibited at 16 µg/ml peptide K. p. (Klebsiella pneumoniae) | # strains inhibited at 16 µg/ml peptide P. a. (Pseudomonas aeruginosa) | # strains inhibited at 16 µg/ml peptide S. m. (Serratia marcescens) | No. of strains inhibited at 16 µg/ml/total no. of strains (19 Gram-negative strains) | MIC E. faecalis 29212 (E. faecalis) [µg/mL] | MIC E. faecalis 51299 (E. faecalis) [µg/mL] | MIC S. aureus 25923 (S. aureus) [µg/mL] | MIC S. aureus 29213 (S. aureus) [µg/mL] | reduction of CFU over time (E. cloacae 4080) | concentration usually required to inhibit growth of S. marcescens strains (Serratia marcescens; S. marcescens strains) [µg/mL] | No. of strains inhibited at 16 µg/ml/total no. of strains (19 Gram-negative strains; 19 Gram-negative strains, MIC of 16 µg/ml or less) |
| --- | --- | --- | --- | --- | --- | --- | --- | --- | --- | --- | --- | --- | --- | --- | --- | --- |
| CC[C@H](C)CCCCC(=O)N[C@@H](CCN)C(=O)N[C@H](C(=O)N[C@@H](CCN)C(=O)N[C@H]1CCNC(=O)[C@H]([C@@H](C)O)NC(=O)[C@H](CCN)NC(=O)[C@H](CCN)NC(=O)[C@H](CC(C)C)NC(=O)[C@@H](CC(C)C)NC(=O)[C@H](CCN)NC1=O)[C@@H](C)O [Colistin, colistin] (X1-[Dab]T[Dab][Dab][Dab][dL]L[Dab][Dab]T; lactam 4-C (inferred); N-terminus assumed) | 1.4 | 6.4 (≈ 7.48 µg/mL) | 6.4 (≈ 7.48 µg/mL) |  |  |  |  |  |  |  |  |  |  |  |  |  |
| CC[C@H](C)[C@H](NC(=O)[C@@H](NC(=O)[C@@H]1CCCN1C(=O)[C@H](CO)NC(=O)[C@H](CC(C)C)NC(=O)[C@H](CCCCN)NC(=O)[C@H](CCCCN)NC(=O)[C@H](Cc1ccccc1)NC(=O)[C@H](CC(C)C)NC(=O)[C@H](CCCCN)NC(=O)[C@H](CCCCN)NC(=O)[C@H](Cc1ccccc1)NC(=O)[C@H](CCCCN)NC(=O)[C@H](CCCCN)NC(=O)[C@H](CCCNC(=N)N)NC(=O)[C@H](CC(C)C)NC(=O)[C@H](CCCNC(=N)N)NC(=O)[C@H](CCCCN)NC(=O)[C@H](Cc1ccccc1)NC(=O)[C@H](CCCNC(=N)N)NC(=O)CN)C(C)C)C(=O)N1CCC[C@H]1C(=O)N[C@@H](CC(C)C)C(=O)N[C@@H](CC(C)C)C(=O)N[C@@H](Cc1c[nH]cn1)C(=O)N[C@@H](CC(C)C)C(=O)NCC(=O)O [BMAP-27A] (H-GRFKRLRKKFKKLFKKLSPVIPLLHLG-OH; N-terminus and C-terminus assumed) |  |  |  | 2/2 | 6/6 | 4/4 | 4/4 | 3/3 | 19/19 | >32 | >32 | 16 (≈ 4.92 µM) | 16 (≈ 4.92 µM) |  |  |  |
| CC[C@H](C)[C@H](NC(=O)[C@H](CCCCN)NC(=O)[C@H](C)NC(=O)[C@H](CCCCN)NC(=O)[C@H](CO)NC(=O)[C@H](CCCCN)NC(=O)[C@H](CCCNC(=N)N)NC(=O)[C@H](Cc1ccccc1)NC(=O)[C@H](Cc1ccccc1)NC(=O)[C@H](C)NC(=O)CNC(=O)[C@H](CC(C)C)NC(=O)[C@@H](N)CC(C)C)C(=O)NCC(=O)N[C@@H](CCCCN)C(=O)N[C@@H](C)C(=O)N[C@@H](Cc1ccccc1)C(=O)N[C@@H](CCCCN)C(=O)N[C@@H](CCCNC(=N)N)C(=O)N[C@H](C(=O)N[C@H](C(=O)N[C@@H](CCC(N)=O)C(=O)N[C@@H](CCCNC(=N)N)C(=O)N[C@H](C(=O)N[C@@H](CCCCN)C(=O)N[C@@H](C)C(=O)N[C@@H](Cc1ccccc1)C(=O)N[C@@H](CC(C)C)C(=O)N[C@@H](CCCNC(=N)N)C(=O)O)[C@@H](C)CC)C(C)C)[C@@H](C)CC [LL-29V2] (H-LLGAFFRKSKAKIGKAFKRIVQRIKAFLR-OH) |  |  |  | 1/2 | 4/6 | 4/4 | 1/4 | 1/3 | 4/19 |  |  |  |  |  |  |  |
| CC[C@H](C)[C@H](NC(=O)[C@@H](NC(=O)[C@@H]1CCCN1C(=O)[C@H](CO)NC(=O)[C@H](CC(C)C)NC(=O)[C@H](CCCCN)NC(=O)[C@H](CCCCN)NC(=O)[C@H](C)NC(=O)[C@H](CC(C)C)NC(=O)[C@H](CCCCN)NC(=O)[C@H](CCCCN)NC(=O)[C@H](CC(C)C)NC(=O)[C@H](CCCCN)NC(=O)[C@H](CCCCN)NC(=O)[C@H](CCCNC(=N)N)NC(=O)[C@H](CC(C)C)NC(=O)[C@H](CCCNC(=N)N)NC(=O)[C@H](CCCCN)NC(=O)[C@H](C)NC(=O)[C@H](CCCNC(=N)N)NC(=O)CN)C(C)C)C(=O)N1CCC[C@H]1C(=O)N[C@@H](CC(C)C)C(=O)N[C@@H](CC(C)C)C(=O)N[C@@H](Cc1c[nH]cn1)C(=O)N[C@@H](CC(C)C)C(=O)NCC(=O)O [BMAP-27C] (H-GRAKRLRKKLKKLAKKLSPVIPLLHLG-OH) |  |  |  | 2/2 | 6/6 | 4/4 | 4/4 | 2/3 | 17/19 | >32 | >32 | >32 | 32 (≈ 10.4 µM) |  |  |  |
| CC[C@H](C)[C@H](NC(=O)[C@H](CCCCN)NC(=O)[C@H](CCC(=O)O)NC(=O)[C@H](CCCCN)NC(=O)[C@H](CO)NC(=O)[C@H](CCCCN)NC(=O)[C@H](CCCNC(=N)N)NC(=O)[C@H](Cc1ccccc1)NC(=O)[C@H](Cc1ccccc1)NC(=O)[C@H](C)NC(=O)CNC(=O)[C@H](CC(C)C)NC(=O)[C@@H](N)CC(C)C)C(=O)NCC(=O)N[C@@H](CCCCN)C(=O)N[C@@H](C)C(=O)N[C@@H](Cc1ccccc1)C(=O)N[C@@H](CCCCN)C(=O)N[C@@H](CCCNC(=N)N)C(=O)N[C@H](C(=O)N[C@H](C(=O)N[C@@H](CCC(N)=O)C(=O)N[C@@H](CCCNC(=N)N)C(=O)N[C@H](C(=O)N[C@@H](CCCCN)C(=O)N[C@@H](CC(=O)O)C(=O)N[C@@H](Cc1ccccc1)C(=O)N[C@@H](CC(C)C)C(=O)N[C@@H](CCCNC(=N)N)C(=O)O)[C@@H](C)CC)C(C)C)[C@@H](C)CC [LL-29V] (H-LLGAFFRKSKEKIGKAFKRIVQRIKDFLR-OH) |  |  |  | 1/2 | 3/6 | 0/4 | 0/4 | 0/3 | 11/19 |  |  |  |  |  |  |  |
| NC[C@H]1O[C@H](O[C@H]2[C@H](O)[C@@H](O[C@H]3O[C@H](CO)[C@@H](O)[C@H](N)[C@H]3O)[C@H](N)C[C@@H]2N)[C@H](O)[C@@H](O)[C@@H]1O [kanamycin] |  |  |  |  |  |  |  |  |  |  |  |  |  | only after a 2-h incubation |  |  |
| CC[C@H](C)[C@H](NC(=O)[C@@H](NC(=O)[C@@H]1CCCN1C(=O)[C@H](CO)NC(=O)[C@H](CC(C)C)NC(=O)[C@H](CCCCN)NC(=O)[C@H](CCCCN)NC(=O)[C@H](Cc1ccccc1)NC(=O)[C@H](CC(C)C)NC(=O)[C@H](CCCCN)NC(=O)[C@H](CCCCN)NC(=O)[C@H](Cc1ccccc1)NC(=O)[C@H](CCCCN)NC(=O)[C@H](CCCCN)NC(=O)[C@H](CCCNC(=N)N)NC(=O)[C@H](Cc1ccccc1)NC(=O)[C@H](CCCNC(=N)N)NC(=O)[C@H](CCCCN)NC(=O)[C@H](Cc1ccccc1)NC(=O)[C@H](CCCNC(=N)N)NC(=O)CN)C(C)C)C(=O)N1CCC[C@H]1C(=O)N[C@@H](CC(C)C)C(=O)N[C@@H](CC(C)C)C(=O)N[C@@H](Cc1c[nH]cn1)C(=O)N[C@@H](CC(C)C)C(=O)NCC(=O)O [BMAP-27] (H-GRFKRFRKKFKKLFKKLSPVIPLLHLG-OH; N-terminus and C-terminus assumed) |  |  |  | 2/2 | 6/6 | 4/4 | 4/4 | 3/3 | 19 and 19/19 | >32 | >32 | 16 (≈ 4.87 µM) | 16 (≈ 4.87 µM) |  | 8 | ≥ 16 |
| CC[C@H](C)[C@H](NC(=O)[C@H](CCCCN)NC(=O)[C@H](CCC(=O)O)NC(=O)[C@H](CCCCN)NC(=O)[C@H](CO)NC(=O)[C@H](CCCCN)NC(=O)[C@H](CCCNC(=N)N)NC(=O)[C@H](Cc1ccccc1)NC(=O)[C@H](Cc1ccccc1)NC(=O)[C@H](CC(=O)O)NC(=O)CNC(=O)[C@H](CC(C)C)NC(=O)[C@@H](N)CC(C)C)C(=O)NCC(=O)N[C@@H](CCCCN)C(=O)N[C@@H](CCC(=O)O)C(=O)N[C@@H](Cc1ccccc1)C(=O)N[C@@H](CCCCN)C(=O)N[C@@H](CCCNC(=N)N)C(=O)N[C@H](C(=O)N[C@H](C(=O)N[C@@H](CCC(N)=O)C(=O)N[C@@H](CCCNC(=N)N)C(=O)N[C@H](C(=O)N[C@@H](CCCCN)C(=O)N[C@@H](CC(=O)O)C(=O)N[C@@H](Cc1ccccc1)C(=O)N[C@@H](CC(C)C)C(=O)N[C@@H](CCCNC(=N)N)C(=O)O)[C@@H](C)CC)C(C)C)[C@@H](C)CC [LL-29] (H-LLGDFFRKSKEKIGKEFKRIVQRIKDFLR-OH; N-terminus and C-terminus assumed) |  |  |  | 1/2 | 2/6 | 0/4 | 0/4 | 0/3 | 4/19 |  |  |  |  |  |  |  |
